Calls of active or inactive are those of the source.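 The calls were made as follows: active = fitted curve reaches 40% activation below the top valid tested dose, in every test run; inconclusive = test runs disagree on the call; inactive = the rest, including effects opposite to the expected direction.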

One experiment in a line: E-selectin inducers in HUVECs, dose response, imaging, HUVEC, cherry-picked samples (AID 977605).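 Also: signal is the share of imaged cells scored positive for E-selectin.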 As to conditions: HUVEC E-selectin immunostaining, at 19.5 µM (top of the series), percent of TNF-alpha response over vehicle.
Turning to `C[C@@H]1CN([C@H](C)CO)C(=O)c2cccc(NC(=O)CCCCCC(=O)Nc3ccccc3N)c2O[C@H]1CN(C)C`, the activation was 0.064% (inactive).
For `C[C@@H]1CN([C@H](C)CO)C(=O)c2cccc(NC(=O)C3CCOCC3)c2O[C@@H]1CN(C)Cc1ccc(Oc2ccccc2)cc1`, the activation was 0.031% (inactive).
Take `C[C@@H]1CN([C@@H](C)CO)C(=O)Cc2cc(NC(=O)Nc3ccc(F)cc3)ccc2O[C@@H]1CN(C)Cc1ccncc1`: the activation was 10.4% (inactive).
Consider `COc1ccc(C(=O)N2CC(c3ccccc3)CC2=O)cc1` (stereo unspecified), for which the activation is -0.124% (inactive).
Regarding `O=C(O)Cn1cc(C(=O)C(F)(F)F)c2ccccc21`, the activation was 0.43% (inactive).
Regarding `CC(C)NC(=O)N(C)C[C@@H]1Oc2ccc(NS(=O)(=O)c3cccs3)cc2CC(=O)N([C@H](C)CO)C[C@@H]1C`, the activation was 1.19% (inactive).
In the case of `COc1ccc(CN(C)C[C@@H]2Oc3ccc(NC(=O)Nc4ccc(F)cc4)cc3CC(=O)N([C@H](C)CO)C[C@H]2C)cc1`, the activation was 0.445% (inactive).
In the case of `C[C@@H]1CN([C@@H](C)CO)C(=O)Cc2cc(NC(=O)CCCCCC(=O)Nc3ccccc3N)ccc2O[C@@H]1CN(C)C(=O)Nc1ccc2c(c1)OCO2`, the activation is 0.042% (inactive).
Consider `C[C@H](CO)N1C[C@H](C)[C@H](CN(C)C(=O)Nc2ccc(C(F)(F)F)cc2)Oc2ccc(NC(=O)Cn3cnnn3)cc2CC1=O`, for which the activation was 0.063% (inactive).
Same read-out and setting: as for `CS(=O)(=O)N1CCc2cc(S(=O)(=O)NCCNS(=O)(=O)c3ccc4c(c3)CCN4S(C)(=O)=O)ccc21`, the figure is 0.185% (inactive); as for `Cc1cc(NC(=O)c2ccccc2F)n(C(C)(C)C)n1`, 0.21% (inactive); as for `C[C@@H]1CCCCO[C@@H](CN(C)S(C)(=O)=O)[C@@H](C)CN([C@H](C)CO)C(=O)c2cc(NC(=O)CCCN(C)C)ccc2O1`, -0.145% (inactive).
For `COc1ccc(CN(C)C[C@H]2Oc3ccc(NC(=O)c4ccncc4)cc3C(=O)N([C@H](C)CO)C[C@@H]2C)cc1`, the activation was 0.118% (inactive).
Same read-out and setting: as for `Cc1ccc(S(=O)(=O)N2CCN(C(=O)Cc3sc(C)nc3-c3ccc(F)cc3)CC2)c(C)c1`, the figure is -0.025% (inactive).
For `O=C(c1cc(COc2ccc(F)cc2Cl)on1)N(Cc1ccncc1)CC1CCCO1` (stereo unspecified), the activation is -0.279% (inactive).
On to `COc1cccc(-c2cccc(-c3nc(C(=O)Nc4ccc(-c5ccccc5)cc4)cc4c3[C@@H](CCO)N(S(=O)C(C)(C)C)C4)c2)c1` (stereo partly specified), for which the activation was 1.45% (inactive).
As to `COc1ccc(NC(=O)NC2(C(=O)N3CCOCC3)CCCCC2)cc1`, the activation was 0.439% (inactive).
For the molecule `CC(C)(C)c1ccc(NC(=O)N2CCCN(c3ccc([N+](=O)[O-])cn3)CC2)cc1`, the activation is 0.154% (inactive).
In the case of `C[C@@H]1CN([C@@H](C)CO)C(=O)c2cccc(NC(=O)Nc3ccc4c(c3)OCO4)c2O[C@H]1CN(C)S(=O)(=O)c1ccc(F)cc1`, the activation is -0.076% (inactive).
In the case of `Cc1noc(C)c1S(=O)(=O)Nc1ccc2c(c1)C(=O)N([C@H](C)CO)C[C@@H](C)[C@H](CN(C)Cc1ccc3c(c1)OCO3)O2`, the activation is -0.134% (inactive).
`COc1ccc(S(=O)(=O)Nc2ccc3c(c2)C(=O)N([C@H](C)CO)C[C@@H](C)[C@@H](CN(C)C(=O)Nc2cccc4ccccc24)O3)cc1`: the activation was 1.7% (inactive).
Still for that read-out and setting: as for `COc1ccc(S(=O)(=O)N(C)C[C@H]2Oc3ccc(NC(=O)CCCN(C)C)cc3C(=O)N([C@@H](C)CO)C[C@H]2C)cc1`, the figure is 0.162% (inactive); as for `COc1ccc(NC(=O)c2cc(-c3cccs3)on2)c(OC)c1`, 1.59% (inactive); as for `C[C@@H]1CN([C@@H](C)CO)C(=O)Cc2cc(NC(=O)Nc3ccc(F)cc3)ccc2O[C@H]1CN(C)Cc1ccc(C(=O)O)cc1`, -0.089% (inactive).
Regarding `CCCCc1c(C)nc2ccc(C)cc2c1SCCC(=O)O`, the activation was -0.168% (inactive).
As to `COc1ccc(NS(=O)(=O)c2cccc(Cl)c2Cl)cc1S(=O)(=O)N1CCCCC1`, the activation is -0.061% (inactive).
On to `COc1ccc(NC(=O)Nc2cccc3c2O[C@@H](CN(C)C(=O)NC2CCCCC2)[C@@H](C)CN([C@H](C)CO)C3=O)cc1`, for which the activation was 0.334% (inactive).
Still for that read-out and setting: as for `Cc1cc(C(=O)Nc2ccc(C)c(C)c2)n(-c2ccccc2)n1`, the figure is 0.076% (inactive).
Turning to `CC(C)NC(=O)Nc1ccc2c(c1)CC(=O)N([C@H](C)CO)C[C@@H](C)[C@H](CN(C)Cc1ccc(Oc3ccccc3)cc1)O2`, the activation was -0.138% (inactive).
As for `COc1ccc(CN(C)C[C@@H]2Oc3ccc(N(C)C)cc3CC(=O)N([C@@H](C)CO)C[C@@H]2C)cc1`, the activation was -0.012% (inactive).
With `CC(C)(C)c1cc(CCC(=O)NCc2ccccn2)cc(C(C)(C)C)c1O`, the activation was -0.086% (inactive).
On the same count and under the same terms, as for `Cc1ccc(-n2ncc3c(=O)[nH]c(SC(C)C)nc32)cc1`, the figure is 0.023% (inactive); as for `CCOC(=O)c1cccc(NC(=O)c2cc(C)nn2-c2ccccc2)c1`, 0.657% (inactive); as for `COc1ccc(-c2nnc3n2CCCCC3)cc1OC`, 0.027% (inactive).
Still for that read-out and setting: as for `CC(C)CCNC(=O)[C@H](Cc1ccccc1)N1Cc2ccccc2C1=O`, the figure is 0.131% (inactive); as for `CCOc1cnc(C(=O)NNC(=O)c2ccccc2Br)o1`, 0.602% (inactive); as for `C[C@@H]1CN([C@H](C)CO)C(=O)Cc2cc(NC(=O)Nc3ccc(F)cc3)ccc2O[C@H]1CN(C)S(=O)(=O)c1ccc(Cl)cc1`, 0.054% (inactive).
In the case of `CN(CC(=O)Nc1cccc(F)c1)CC(=O)N1CCc2ccccc21`, the activation was 0.11% (inactive).
`COc1ccc(CNC(=O)Cn2ccc(N)nc2=O)cc1`: the activation was 0.076% (inactive).
Still for that read-out and setting: as for `COc1ccccc1-c1c(C)nn2c(NCCN3CCCC3)cc(C)nc12`, the figure is 0.061% (inactive); as for `CCC(=O)N(C)C[C@H]1Oc2ncc(Br)cc2C(=O)N([C@@H](C)CO)C[C@@H]1C`, 0.243% (inactive).
For the molecule `CC(C)NC(=O)N(C)C[C@@H]1Oc2ccc(NC(=O)Cn3cnnn3)cc2CC(=O)N([C@@H](C)CO)C[C@H]1C`, the activation is 0.965% (inactive).
On to `C[C@@H]1CN([C@H](C)CO)C(=O)c2cc(NS(=O)(=O)c3ccc(F)cc3)ccc2O[C@@H](C)CCCCO[C@@H]1CN(C)S(C)(=O)=O`, for which the activation is 3.44% (inactive).
For `C[C@@H]1CN([C@H](C)CO)C(=O)c2cc(NC(=O)Cn3cnnn3)ccc2O[C@H]1CN(C)S(=O)(=O)c1ccccc1`, the activation is 0% (inactive).
Regarding `C[C@@H]1CN([C@H](C)CO)C(=O)c2cc(NS(=O)(=O)c3cccs3)ccc2O[C@H]1CN(C)S(C)(=O)=O`, the activation is -0.143% (inactive).
Still for that read-out and setting: as for `COC(=O)c1cc(S(=O)(=O)NCC2CCN(CCc3cccs3)CC2)c[nH]1`, the figure is 0.021% (inactive); as for `COc1ccc(CN2CCN(C(=O)c3ccccc3C(=O)c3ccccc3)CC2)cc1OC`, 0.003% (inactive); as for `O=C(COc1ccc(Cl)cc1)NCCCNC(=O)c1cnccn1`, 0.135% (inactive).
With `C[C@H](CO)N1C[C@H](C)[C@@H](CN(C)S(=O)(=O)c2cn(C)cn2)Oc2ccc(N(C)C)cc2C1=O`, the activation is 0.037% (inactive).
Turning to `O=C(CN(CC1CCCO1)C(=O)CNS(=O)(=O)c1ccccc1)NCc1ccc(F)cc1` (stereo unspecified), the activation was 1.46% (inactive).
Consider `C[C@H](CO)N1C[C@H](C)[C@H](CN(C)Cc2ccc(Oc3ccccc3)cc2)Oc2c(NS(C)(=O)=O)cccc2C1=O`, for which the activation is 3.2% (inactive).
Still for that read-out and setting: as for `C[C@@H]1CN([C@H](C)CO)C(=O)Cc2cc(NS(=O)(=O)c3cccs3)ccc2O[C@@H]1CN(C)Cc1ccc(C(=O)Nc2ccccc2N)cc1`, the figure is 1.45% (inactive); as for `Cc1ccc(N2C(=O)[C@@H]3C(c4cccnc4)=NO[C@@H]3C2=O)c(C)c1`, 0.363% (inactive).
The same measure, in the same setting: as for `C[C@@H]1CN([C@@H](C)CO)C(=O)c2cccc(NC(=O)Nc3ccc(F)cc3)c2O[C@H]1CN(C)CC1CCCCC1`, the figure is -0.153% (inactive); as for `COc1ccc(CN(C)C[C@H]2Oc3c(NC(=O)c4cnccn4)cccc3C(=O)N([C@H](C)CO)C[C@@H]2C)cc1`, 0.248% (inactive); as for `C[C@H]1CN([C@@H](C)CO)C(=O)c2cccc(NC(=O)c3ccncc3)c2O[C@@H]1CN(C)Cc1ccc(C(=O)Nc2ccccc2N)cc1`, 0.014% (inactive).
For the molecule `C[C@@H]1CN([C@H](C)CO)C(=O)c2cccc(NC(=O)c3ccncc3)c2O[C@H]1CN(C)S(=O)(=O)c1ccccc1`, the activation was 2.7% (inactive).
Turning to `O=C(O)CC1C(=O)NCCN1Cc1cccs1` (stereo unspecified), the activation was -0.112% (inactive).

Staying with this experiment, now noted: HUVEC E-selectin immunostaining, at 21 µM (top of the series), percent of TNF-alpha response over vehicle.
As for `CC(C)NC(=O)Nc1cccc2c1O[C@H](CN(C)Cc1ccncc1)[C@@H](C)CN([C@H](C)CO)C2=O`, the activation is 0.115% (inactive).
Turning to `C[C@H](CO)N1C[C@H](C)[C@H](CN(C)S(=O)(=O)c2ccccc2)Oc2c(NC(=O)C3CCOCC3)cccc2C1=O`, the activation is 3.15% (inactive).
Regarding `COc1ccc(NC(=O)N(C)C[C@H]2Oc3ccc(NC(=O)Cc4cn(C)c5ccccc45)cc3C(=O)N([C@H](C)CO)C[C@@H]2C)cc1`, the activation is 7.04% (inactive).
Regarding `C[C@@H]1CN([C@H](C)CO)C(=O)Cc2cc(NC(=O)Cc3cn(C)c4ccccc34)ccc2O[C@H]1CN(C)Cc1ccc(C(F)(F)F)cc1`, the activation is 14% (inactive).
Same read-out and setting: as for `C[C@H]1CN([C@@H](C)CO)C(=O)c2cccc(NC(=O)c3ccc(-c4nccs4)cc3)c2O[C@H]1CN(C)Cc1ccc(Oc2ccccc2)cc1`, the figure is 0.436% (inactive).
As for `COc1ccc(CN(C)C[C@H]2Oc3ccc(NC(=O)Nc4c(C)noc4C)cc3C(=O)N([C@@H](C)CO)C[C@H]2C)cc1`, the activation is 0.014% (inactive).
Still for that read-out and setting: as for `CC(C)NC(=O)N(C)C[C@H]1Oc2ccc(NC(=O)CCC(F)(F)F)cc2CC(=O)N([C@@H](C)CO)C[C@@H]1C`, the figure is -0.117% (inactive); as for `CC(C)NC(=O)Nc1ccc2c(c1)CC(=O)N([C@H](C)CO)C[C@H](C)[C@H](CN(C)Cc1ccc(Cl)c(Cl)c1)O2`, 0.284% (inactive).

(Values after PubChem BioAssay AID977605 (Broad Institute, 2014).)
